Results on ten molecules are retold here after article PMC9927415, “Tyrosine Kinase Inhibitors Display Potent Activity against Cryptosporidium parvum” (Microbiology Spectrum, 2022).

Read-outs that look alike come from different tables or passages of the source.

What all share (experiment): KINOMEscan competitive binding
The target of assay [1] is T1, LKB1 (Homo sapiens, UniProt Q15831).
T1 construct: purchased DiscoverX (KINOMEscan)
T1 sequence (Q15831 1-433): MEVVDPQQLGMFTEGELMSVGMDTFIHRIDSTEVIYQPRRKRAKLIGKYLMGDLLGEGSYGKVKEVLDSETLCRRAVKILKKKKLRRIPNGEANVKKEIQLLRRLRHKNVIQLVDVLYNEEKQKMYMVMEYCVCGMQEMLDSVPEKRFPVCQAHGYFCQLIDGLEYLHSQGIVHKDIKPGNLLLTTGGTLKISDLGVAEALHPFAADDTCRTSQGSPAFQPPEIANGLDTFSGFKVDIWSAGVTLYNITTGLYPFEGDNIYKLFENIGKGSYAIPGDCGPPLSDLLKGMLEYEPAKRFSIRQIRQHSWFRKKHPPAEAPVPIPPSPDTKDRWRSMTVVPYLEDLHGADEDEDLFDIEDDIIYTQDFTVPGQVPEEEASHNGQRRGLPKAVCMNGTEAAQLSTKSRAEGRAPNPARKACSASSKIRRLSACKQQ
The source says: (§1) The kinases were expressed as fusions to T7 bacteriophage. This is a sensitive, competitive binding assay where test compounds were used to displace immobilized ATP-site binding probe ligands from kinases of interest. The amount of kinase that remained bound to the immobilized probe ligands on the solid support was quantified. Percentage inhibition data were was plotted on kinome trees using the web-based tool KinMap (http://www.kinhub.org/kinmap) ([60]).

In assay [2] the target is T2, CSNK1E (Homo sapiens, UniProt P49674).
T2 construct: purchased DiscoverX (KINOMEscan)
Excerpt: as §1

The target of assay [3] is T3, CSNK1G1 (Homo sapiens, UniProt Q9HCP0).
T3 construct: purchased DiscoverX (KINOMEscan)
Excerpt: as §1

Assay [4] addresses T4, LYN (Homo sapiens, UniProt P07948).
T4 construct: purchased DiscoverX (KINOMEscan)
Excerpt: as §1

Assay [5] addresses T5, AAK1 (Homo sapiens, UniProt Q2M2I8).
T5 construct: purchased DiscoverX (KINOMEscan)
Excerpt: as §1

Assay [6] deals with T6, MERTK (Homo sapiens, UniProt Q12866).
T6 construct: purchased DiscoverX (KINOMEscan)
T6 sequence (Q12866 21-999): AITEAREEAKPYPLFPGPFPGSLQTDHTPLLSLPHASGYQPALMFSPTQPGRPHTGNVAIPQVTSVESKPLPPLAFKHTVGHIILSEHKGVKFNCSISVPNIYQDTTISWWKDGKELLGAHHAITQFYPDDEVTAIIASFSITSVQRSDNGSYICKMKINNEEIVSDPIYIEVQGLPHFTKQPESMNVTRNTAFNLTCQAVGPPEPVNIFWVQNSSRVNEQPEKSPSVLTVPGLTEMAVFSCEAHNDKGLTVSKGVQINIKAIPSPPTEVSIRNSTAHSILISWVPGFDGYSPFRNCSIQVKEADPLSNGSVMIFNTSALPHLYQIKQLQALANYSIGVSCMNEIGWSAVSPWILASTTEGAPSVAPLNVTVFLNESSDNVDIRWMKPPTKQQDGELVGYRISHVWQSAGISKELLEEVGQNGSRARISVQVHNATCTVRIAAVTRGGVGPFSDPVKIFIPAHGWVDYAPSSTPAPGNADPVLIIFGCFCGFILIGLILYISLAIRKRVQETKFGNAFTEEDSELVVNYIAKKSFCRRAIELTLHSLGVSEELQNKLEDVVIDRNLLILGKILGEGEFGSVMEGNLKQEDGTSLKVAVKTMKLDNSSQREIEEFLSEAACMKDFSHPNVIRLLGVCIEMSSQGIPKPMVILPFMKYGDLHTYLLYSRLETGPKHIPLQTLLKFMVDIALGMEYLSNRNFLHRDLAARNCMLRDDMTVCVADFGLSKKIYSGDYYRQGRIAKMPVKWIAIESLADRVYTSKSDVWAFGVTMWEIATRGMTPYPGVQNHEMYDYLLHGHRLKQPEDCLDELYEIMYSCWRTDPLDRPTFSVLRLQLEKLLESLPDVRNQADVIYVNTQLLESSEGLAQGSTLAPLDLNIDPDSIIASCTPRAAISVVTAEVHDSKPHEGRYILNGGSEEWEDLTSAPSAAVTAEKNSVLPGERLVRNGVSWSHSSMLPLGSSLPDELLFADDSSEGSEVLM
Excerpt: as §1

The target in assay [7] is T7, CLK1 (Homo sapiens, UniProt P49759).
T7 construct: purchased DiscoverX (KINOMEscan)
Excerpt: as §1

In assay [8] the target is T8, PLK1 (Homo sapiens, UniProt P53350).
T8 construct: purchased DiscoverX (KINOMEscan)
The settings on record: n=1, read-out: Percent inhibition, PLK1.
Excerpt: as §1

Assay [9] addresses T9, KDR (VEGFR2) (Homo sapiens, UniProt P35968).
T9 construct: purchased DiscoverX (KINOMEscan)
The following applies: for inhibition at 10 µM: KINOMEscan, n=1, read-out: Percent inhibition, VEGFR2.
Excerpt: as §1

[10] abbreviates: 10 µM, n=1, kinase LKB1, read-out: Percent inhibition LKB1.
Where [11] appears, read: 10 µM, n=1, kinase CSNK1E, read-out: Percent inhibition CSNK1E.
[12] abbreviates: 10 µM, n=1, kinase CSNK1G1, read-out: Percent inhibition CSNK1G1.
The mark [13] stands for this setting: 10 µM, n=1, kinase LYN, read-out: Percent inhibition LYN.
[14] abbreviates: 10 µM, n=1, kinase AAK1, read-out: Percent inhibition AAK1.
Where [15] appears, read: 10 µM, n=1, kinase MERTK, read-out: Percent inhibition MERTK.
The mark [16] stands for this setting: 10 µM, n=1, kinase CLK1, read-out: Percent inhibition CLK1.

T4 sequence (P07948 whole entry): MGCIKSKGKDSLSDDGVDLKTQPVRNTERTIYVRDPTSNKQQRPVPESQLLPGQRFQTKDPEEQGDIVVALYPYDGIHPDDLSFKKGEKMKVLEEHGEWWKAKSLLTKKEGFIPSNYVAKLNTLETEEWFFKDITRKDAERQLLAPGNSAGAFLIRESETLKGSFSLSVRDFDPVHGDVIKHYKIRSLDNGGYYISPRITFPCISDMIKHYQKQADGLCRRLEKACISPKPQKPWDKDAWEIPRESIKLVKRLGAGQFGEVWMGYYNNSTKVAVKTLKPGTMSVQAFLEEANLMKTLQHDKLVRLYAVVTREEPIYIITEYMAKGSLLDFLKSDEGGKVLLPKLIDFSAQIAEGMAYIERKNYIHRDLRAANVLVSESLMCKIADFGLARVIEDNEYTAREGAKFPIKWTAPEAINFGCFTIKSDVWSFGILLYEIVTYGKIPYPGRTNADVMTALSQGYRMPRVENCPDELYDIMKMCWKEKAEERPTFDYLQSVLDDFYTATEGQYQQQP
T5 sequence (Q2M2I8 whole entry): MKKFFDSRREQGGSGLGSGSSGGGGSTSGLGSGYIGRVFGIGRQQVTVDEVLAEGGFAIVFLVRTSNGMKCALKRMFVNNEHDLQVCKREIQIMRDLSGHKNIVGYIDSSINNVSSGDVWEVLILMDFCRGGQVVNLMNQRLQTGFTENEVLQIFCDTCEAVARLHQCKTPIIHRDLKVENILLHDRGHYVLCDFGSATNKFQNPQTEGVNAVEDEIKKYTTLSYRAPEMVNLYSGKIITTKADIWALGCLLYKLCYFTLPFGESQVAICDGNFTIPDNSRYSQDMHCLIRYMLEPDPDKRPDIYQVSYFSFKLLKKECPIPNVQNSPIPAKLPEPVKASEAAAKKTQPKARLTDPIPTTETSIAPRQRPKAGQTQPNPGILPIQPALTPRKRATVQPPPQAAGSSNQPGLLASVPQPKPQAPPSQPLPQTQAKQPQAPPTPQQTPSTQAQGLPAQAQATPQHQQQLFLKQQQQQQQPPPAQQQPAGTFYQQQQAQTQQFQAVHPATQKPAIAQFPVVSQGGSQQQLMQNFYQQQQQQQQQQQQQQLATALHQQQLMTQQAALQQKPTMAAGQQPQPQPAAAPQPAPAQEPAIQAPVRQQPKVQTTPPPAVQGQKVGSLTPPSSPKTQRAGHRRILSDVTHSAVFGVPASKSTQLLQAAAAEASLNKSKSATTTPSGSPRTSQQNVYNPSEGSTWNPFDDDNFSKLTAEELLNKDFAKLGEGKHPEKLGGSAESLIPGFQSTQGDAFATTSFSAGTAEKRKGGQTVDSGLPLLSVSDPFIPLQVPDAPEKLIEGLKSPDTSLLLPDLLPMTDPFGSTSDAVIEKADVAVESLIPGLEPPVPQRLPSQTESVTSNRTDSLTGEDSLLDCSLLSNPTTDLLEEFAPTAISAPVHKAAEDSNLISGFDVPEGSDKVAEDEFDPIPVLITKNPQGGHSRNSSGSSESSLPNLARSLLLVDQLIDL
T7 sequence (P49759 whole entry): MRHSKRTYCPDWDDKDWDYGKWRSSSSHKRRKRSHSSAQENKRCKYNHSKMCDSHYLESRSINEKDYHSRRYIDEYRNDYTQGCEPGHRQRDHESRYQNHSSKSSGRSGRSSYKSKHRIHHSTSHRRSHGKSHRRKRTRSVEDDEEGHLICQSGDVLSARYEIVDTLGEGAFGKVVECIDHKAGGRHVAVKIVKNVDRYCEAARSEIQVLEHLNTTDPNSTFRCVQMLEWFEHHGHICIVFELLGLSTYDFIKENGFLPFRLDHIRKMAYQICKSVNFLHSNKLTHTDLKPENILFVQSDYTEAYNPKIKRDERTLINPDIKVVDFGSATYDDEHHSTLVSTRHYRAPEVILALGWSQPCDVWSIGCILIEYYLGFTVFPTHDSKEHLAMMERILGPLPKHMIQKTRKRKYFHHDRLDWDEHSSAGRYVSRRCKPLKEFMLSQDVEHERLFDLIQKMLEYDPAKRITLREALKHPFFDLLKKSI
T8 sequence (P53350 whole entry): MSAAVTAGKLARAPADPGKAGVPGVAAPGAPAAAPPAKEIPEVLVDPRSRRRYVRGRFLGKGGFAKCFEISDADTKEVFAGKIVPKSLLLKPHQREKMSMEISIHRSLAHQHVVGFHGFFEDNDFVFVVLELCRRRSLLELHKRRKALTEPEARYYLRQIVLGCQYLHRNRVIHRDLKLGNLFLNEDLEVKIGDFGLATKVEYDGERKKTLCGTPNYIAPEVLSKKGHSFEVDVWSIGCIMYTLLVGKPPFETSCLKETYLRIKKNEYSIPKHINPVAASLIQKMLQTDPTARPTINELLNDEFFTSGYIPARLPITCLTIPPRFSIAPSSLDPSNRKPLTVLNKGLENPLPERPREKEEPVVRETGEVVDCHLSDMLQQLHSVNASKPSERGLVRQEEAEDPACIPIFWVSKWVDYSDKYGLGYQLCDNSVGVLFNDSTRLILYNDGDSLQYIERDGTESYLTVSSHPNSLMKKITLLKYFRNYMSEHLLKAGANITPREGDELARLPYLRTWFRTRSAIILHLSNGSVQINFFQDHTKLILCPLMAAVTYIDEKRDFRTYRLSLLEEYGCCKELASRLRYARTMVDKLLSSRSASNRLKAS
T2 sequence (P49674 whole entry): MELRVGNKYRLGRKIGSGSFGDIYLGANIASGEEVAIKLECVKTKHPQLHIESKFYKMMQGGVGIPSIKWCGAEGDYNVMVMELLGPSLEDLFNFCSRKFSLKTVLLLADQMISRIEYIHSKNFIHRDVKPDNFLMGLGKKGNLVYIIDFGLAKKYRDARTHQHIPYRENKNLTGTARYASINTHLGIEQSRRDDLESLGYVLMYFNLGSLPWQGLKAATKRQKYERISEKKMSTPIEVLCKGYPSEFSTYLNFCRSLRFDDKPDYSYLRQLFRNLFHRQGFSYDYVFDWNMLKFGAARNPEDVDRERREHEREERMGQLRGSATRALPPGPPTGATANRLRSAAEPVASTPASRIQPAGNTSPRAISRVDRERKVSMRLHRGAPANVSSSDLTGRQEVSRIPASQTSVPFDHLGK
T3 sequence (Q9HCP0 whole entry): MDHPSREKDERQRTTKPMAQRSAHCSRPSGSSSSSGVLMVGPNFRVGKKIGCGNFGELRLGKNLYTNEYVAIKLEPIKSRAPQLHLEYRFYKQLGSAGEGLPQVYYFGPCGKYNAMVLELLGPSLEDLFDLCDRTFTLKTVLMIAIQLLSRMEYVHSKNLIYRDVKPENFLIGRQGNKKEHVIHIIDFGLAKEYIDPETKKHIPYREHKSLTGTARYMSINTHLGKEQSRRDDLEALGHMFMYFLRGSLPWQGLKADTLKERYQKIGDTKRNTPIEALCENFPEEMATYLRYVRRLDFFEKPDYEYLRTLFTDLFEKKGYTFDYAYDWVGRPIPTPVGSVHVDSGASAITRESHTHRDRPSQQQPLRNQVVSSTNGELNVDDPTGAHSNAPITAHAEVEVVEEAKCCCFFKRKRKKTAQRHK
T9 sequence (P35968 20-1356): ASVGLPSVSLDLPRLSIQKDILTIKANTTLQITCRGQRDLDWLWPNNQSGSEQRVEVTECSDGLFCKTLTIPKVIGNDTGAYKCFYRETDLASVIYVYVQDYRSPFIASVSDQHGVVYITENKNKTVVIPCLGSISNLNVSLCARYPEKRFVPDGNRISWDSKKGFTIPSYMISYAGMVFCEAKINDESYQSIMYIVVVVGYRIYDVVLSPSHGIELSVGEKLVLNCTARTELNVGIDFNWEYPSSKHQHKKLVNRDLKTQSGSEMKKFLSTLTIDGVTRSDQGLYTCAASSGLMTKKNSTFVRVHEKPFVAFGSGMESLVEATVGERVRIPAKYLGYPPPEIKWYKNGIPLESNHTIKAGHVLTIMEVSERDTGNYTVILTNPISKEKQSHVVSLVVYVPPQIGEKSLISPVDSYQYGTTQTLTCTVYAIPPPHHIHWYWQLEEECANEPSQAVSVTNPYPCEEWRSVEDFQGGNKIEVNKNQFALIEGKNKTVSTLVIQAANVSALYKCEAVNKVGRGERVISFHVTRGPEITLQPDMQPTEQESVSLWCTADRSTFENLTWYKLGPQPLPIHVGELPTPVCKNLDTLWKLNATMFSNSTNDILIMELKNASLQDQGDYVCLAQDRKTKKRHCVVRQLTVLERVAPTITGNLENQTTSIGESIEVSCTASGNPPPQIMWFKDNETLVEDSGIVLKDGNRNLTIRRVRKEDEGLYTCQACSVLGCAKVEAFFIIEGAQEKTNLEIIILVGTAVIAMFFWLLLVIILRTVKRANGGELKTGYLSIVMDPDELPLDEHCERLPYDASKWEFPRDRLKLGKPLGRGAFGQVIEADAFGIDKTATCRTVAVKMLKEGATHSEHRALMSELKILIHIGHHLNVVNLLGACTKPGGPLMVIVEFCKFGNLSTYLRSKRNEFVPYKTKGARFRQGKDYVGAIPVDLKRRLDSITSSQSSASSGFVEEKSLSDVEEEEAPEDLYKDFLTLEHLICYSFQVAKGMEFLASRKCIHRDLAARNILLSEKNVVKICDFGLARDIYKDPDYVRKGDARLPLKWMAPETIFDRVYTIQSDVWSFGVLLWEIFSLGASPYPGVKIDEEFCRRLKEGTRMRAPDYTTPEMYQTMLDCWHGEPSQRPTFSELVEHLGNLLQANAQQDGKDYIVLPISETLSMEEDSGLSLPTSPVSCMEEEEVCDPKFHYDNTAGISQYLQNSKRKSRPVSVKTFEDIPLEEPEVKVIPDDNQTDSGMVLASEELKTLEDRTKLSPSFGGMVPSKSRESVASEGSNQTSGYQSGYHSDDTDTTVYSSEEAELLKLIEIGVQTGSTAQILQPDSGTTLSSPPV

By inhibition is commonly meant the change of the read-out against control, counted positive when it falls. As to `CN1CCN(c2ccc(Nc3nccc(-c4cnn5ncccc45)n3)cc2C#N)CC1` [Compound 1], the inhibition at 10 µM in [1] (setting [10]) amounted to 100%; in assay [2] (setting [11]), 100%; in assay [3] (setting [12]), 100%; in assay [4] (setting [13]), 0%; in [5] (setting [14]), 99.9%; in [6] (setting [15]), 98.7%. For the same molecule, the results for the inhibition at 10 µM in assay [7] (setting [16]), in assay [8] and in assay [9] were 99.9%, 0% and 100%, respectively.
As for `COc1ccc(Nc2nccc(-c3cnn4ncccc34)n2)cc1` [Compound 2], the inhibition at 10 µM in [1] (setting [10]) amounted to 96.1%; in [2] (setting [11]), 100%; in assay [3] (setting [12]) it was 75.9%; in assay [4] (setting [13]), 0%; in assay [5] (setting [14]), 99.7%; in assay [6] (setting [15]), 65.9%. Moreover, the inhibition at 10 µM in [7] (setting [16]) was 99.8%; in assay [8], 97.2%; in assay [9] it was 92.9%.
Turning to `Cc1ccc(O)cc1Nc1ccnc(Nc2cccc(C(N)=O)c2)n1` [Compound 3], the inhibition at 10 µM in [1] (setting [10]) was 74.3%; in assay [2] (setting [11]) it was 100%; in [3] (setting [12]), 82.5%; in assay [4] (setting [13]), 99.9%; in assay [5] (setting [14]), 0%; in assay [6] (setting [15]), 0%. In addition, the inhibition at 10 µM worked out at 0% in assay [7] (setting [16]), 0% in assay [8] and 81.5% in assay [9].
Regarding `Cc1ccc(O)cc1N(C)c1ccnc(Nc2cccc(S(N)(=O)=O)c2)n1` [Compound 4], the inhibition at 10 µM in [1] (setting [10]) amounted to 77.3%; in assay [2] (setting [11]) it was 100%; in assay [3] (setting [12]) it was 0%; in assay [4] (setting [13]), 99.8%; in [5] (setting [14]), 0%; in assay [6] (setting [15]), 77.6%. The inhibition at 10 µM in assay [7] (setting [16]) came out at 0%; in [8], 0%; in [9] it was 83.7%.
Take `Fc1cccc(COc2ccc(Nc3ncnc4c3CN(CCN3CCOCC3)CC4)cc2Cl)c1` [Compound 6]: the inhibition at 10 µM in [1] (setting [10]), in [2] (setting [11]), in assay [3] (setting [12]), in assay [4] (setting [13]), in [5] (setting [14]) and in assay [6] (setting [15]) was 0% throughout. The inhibition at 10 µM in assay [7] (setting [16]), in assay [8] and in assay [9] was 0% each time.
On to `COc1cc(Nc2nccc(-c3sc(N)nc3-c3cccc(NC(=O)c4c(F)cccc4F)c3)n2)cc(OC)c1OC` [Compound 7], for which the inhibition at 10 µM came out at 0% in assay [1] (setting [10]); 99.9% in assay [2] (setting [11]); 0% in [3] (setting [12]); 100% in [4] (setting [13]); 92.8% in [5] (setting [14]); 99.6% in [6] (setting [15]). For the same molecule, the inhibition at 10 µM turned out to be 0% in [7] (setting [16]), 0% in assay [8] and 89.5% in assay [9].
For `C[C@@H](Oc1cc(-c2cnc3ccccn23)sc1C(N)=O)c1ccccc1Cl` [Compound 8], the inhibition at 10 µM turned out to be 98.3% in assay [1] (setting [10]); 71.7% in [2] (setting [11]); 0% in assay [3] (setting [12]); 0% in [4] (setting [13]); 97.5% in assay [5] (setting [14]); 87.6% in [6] (setting [15]). Moreover, the inhibition at 10 µM is 92.7% in assay [7] (setting [16]) and 0% in assay [9].
With `c1ccc(COc2cccc(-c3ccnc4[nH]ccc34)c2)cc1` [Compound 9], the inhibition at 10 µM in assay [1] (10 μM, n = 1, read-out: percent inhibition LKB1) was at least 99%; in [1] (setting [10]) it was 99.5%; in assay [2] (setting [11]), 0%; in [3] (setting [12]), 0%; in assay [4] (setting [13]), 0%; in [5] (10 μM, n = 1, read-out: percent inhibition AAK1), at least 90%. For the same molecule, the inhibition at 10 µM in assay [5] (setting [14]) was 95.1%; in assay [6] (10 μM, n = 1, read-out: percent inhibition MERTK) it was at least 90%; in [6] (setting [15]) it was 94.1%; in assay [7] (setting [16]) it was 0%; in [8], 0%; in [9], 0%.
With `Clc1ccc(Nc2ncc(-c3ccccc3)s2)cc1` [Compound 10], the inhibition at 10 µM in assay [1] (setting [10]) was 67.6%; in [2] (setting [11]) it was 0%; in assay [3] (setting [12]), 0%; in assay [4] (10 μM, n = 1, read-out: percent inhibition LYN), over 99%; in [4] (setting [13]) it was 100%; in [5] (setting [14]), 0%. In addition, the inhibition at 10 µM in [6] (setting [15]), in [7] (setting [16]), in assay [8] and in assay [9] was 0% in each case. Also, the “inhibition of KDR (VEGFR2), in words” value in [9] (kinome profiling, 10 μM) is “relatively weak inhibition”.
Consider `Nc1ncc2c(-c3ccncc3)c[nH]c2n1` [Compound 11], for which the inhibition at 10 µM in assay [1] (setting [10]) is 80%; in assay [2] (10 μM, n = 1, read-out: percent inhibition CSNK1E), at least 99%; in [2] (setting [11]), 100%; in assay [3] (10 μM, n = 1, read-out: percent inhibition CSNK1G1), at least 99%; in assay [3] (setting [12]), 99.3%; in assay [4] (setting [13]), 0%. Further, the inhibition at 10 µM in [5] (setting [14]) was 79.4%; in [6] (setting [15]) it was 0%; in assay [7] (10 μM, n = 1, read-out: percent inhibition CLK1) it was at least 99%; in [7] (setting [16]), 99.2%; in assay [8] it was 0%; in [9] it was 0%.
